#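 Where inhibition never reached the appropriate level, the endpoint shown equals the highest concentration tested. Otherwise, values were interpolated linearly from a five-concentration, 48-hour dose response in 96-well plates. TGI: total growth inhibition.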
# Key:
# Assay in all cases: NCI tumour cell line growth inhibition, 48 h
# [1] = test system: 786-0 renal
# [2] = test system: A498 renal
# [3] = test system: A549 NSCLC
# [4] = test system: ACHN renal
# [5] = test system: BT-549 breast
# [6] = test system: CAKI-1 renal
# [7] = test system: CCRF-CEM leukemia
# [8] = test system: COLO 205 colon
# [9] = test system: DU-145 prostate
# [10] = test system: EKVX NSCLC
# [11] = test system: HCT-116 colon
# [12] = test system: HOP-62 NSCLC
# [13] = test system: HOP-92 NSCLC
# [14] = test system: HS 578T breast
# [15] = test system: HT29 colon
# [16] = test system: IGROV1 ovarian
# [17] = test system: K-562 leukemia
# [18] = test system: KM12 colon
# [19] = test system: LOX IMVI melanoma
# [20] = test system: M14 melanoma
# [21] = test system: MALME-3M melanoma
# [22] = test system: MCF7 breast
# [23] = test system: MDA-MB-231 breast
# [24] = test system: MDA-MB-435
# [25] = test system: MDA-N
# [26] = test system: MOLT-4 leukemia
# [27] = test system: NCI-H226 lung
# [28] = test system: NCI-H23 lung
# [29] = test system: NCI-H522 lung
# [30] = test system: NCI/ADR-RES ovarian
# [31] = test system: OVCAR-3 ovarian
# [32] = test system: OVCAR-5 ovarian
# [33] = test system: OVCAR-8 ovarian
# [34] = test system: PC-3 prostate
# [35] = test system: RPMI-8226 leukemia
# [36] = test system: RXF 393 renal
# [37] = test system: SF-268 CNS
# [38] = test system: SF-295 CNS
# [39] = test system: SK-MEL-2 melanoma
# [40] = test system: SK-MEL-28 melanoma
# [41] = test system: SK-MEL-5 melanoma
# [42] = test system: SK-OV-3 ovarian
# [43] = test system: SN12C renal
# [44] = test system: SNB-75 CNS
# [45] = test system: SR leukemia
# [46] = test system: SW-620 colon
# [47] = test system: T-47D breast
# [48] = test system: TK-10 renal
# [49] = test system: U251 CNS
# [50] = test system: UACC-257 melanoma
# [51] = test system: UACC-62 melanoma
# [52] = test system: UO-31 renal
# [53] = test system: HCC-2998 colon
# [54] = test system: HCT-15 colon
# [55] = test system: HL-60(TB) leukemia
# [56] = test system: NCI-H460 lung
# [57] = test system: OVCAR-4 ovarian
# [58] = test system: SF-539 CNS
# [59] = test system: SNB-19 CNS
compound,measurement,setting,value
COC(=O)c1c(C#N)[nH]c(-c2ccsc2)c1C(=O)OC,TGI,[1],> 100 µM
same,TGI,[2],> 100 µM
same,TGI,[3],> 100 µM
same,TGI,[4],> 100 µM
same,TGI,[5],> 100 µM
same,TGI,[6],> 100 µM
same,TGI,[7],> 100 µM
same,TGI,[8],> 100 µM
same,TGI,[9],> 100 µM
same,TGI,[10],> 100 µM
same,TGI,[11],> 100 µM
same,TGI,[12],> 100 µM
same,TGI,[13],> 100 µM
same,TGI,[14],> 100 µM
same,TGI,[15],> 100 µM
same,TGI,[16],> 100 µM
same,TGI,[17],> 100 µM
same,TGI,[18],> 100 µM
same,TGI,[19],> 100 µM
same,TGI,[20],> 100 µM
same,TGI,[21],> 100 µM
same,TGI,[22],> 100 µM
same,TGI,[23],> 100 µM
same,TGI,[24],> 100 µM
same,TGI,[25],> 100 µM
same,TGI,[26],> 100 µM
same,TGI,[27],> 100 µM
same,TGI,[28],> 100 µM
same,TGI,[29],> 100 µM
same,TGI,[30],> 100 µM
same,TGI,[31],> 100 µM
same,TGI,[32],> 100 µM
same,TGI,[33],> 100 µM
same,TGI,[34],> 100 µM
same,TGI,[35],> 100 µM
same,TGI,[36],> 100 µM
same,TGI,[37],> 100 µM
same,TGI,[38],> 100 µM
same,TGI,[39],> 100 µM
same,TGI,[40],> 100 µM
same,TGI,[41],> 100 µM
same,TGI,[42],> 100 µM
same,TGI,[43],> 100 µM
same,TGI,[44],> 100 µM
same,TGI,[45],> 100 µM
same,TGI,[46],> 100 µM
same,TGI,[47],> 100 µM
same,TGI,[48],> 100 µM
same,TGI,[49],> 100 µM
same,TGI,[50],> 100 µM
same,TGI,[51],> 100 µM
same,TGI,[52],> 100 µM
CCOC(=O)c1nc2ccc(C(F)(F)F)cc2[nH]c1=O,TGI,[1],> 100 µM
same,TGI,[2],> 100 µM
same,TGI,[3],> 100 µM
same,TGI,[4],> 100 µM
same,TGI,[5],> 100 µM
same,TGI,[6],> 100 µM
same,TGI,[7],> 100 µM
same,TGI,[8],> 100 µM
same,TGI,[9],> 100 µM
same,TGI,[53],> 100 µM
same,TGI,[11],> 100 µM
same,TGI,[54],> 100 µM
same,TGI,[55],> 100 µM
same,TGI,[12],> 100 µM
same,TGI,[13],> 100 µM
same,TGI,[14],> 100 µM
same,TGI,[15],> 100 µM
same,TGI,[16],> 100 µM
same,TGI,[17],> 100 µM
same,TGI,[18],> 100 µM
same,TGI,[19],> 100 µM
same,TGI,[20],> 100 µM
same,TGI,[22],> 100 µM
same,TGI,[23],> 100 µM
same,TGI,[24],> 100 µM
same,TGI,[25],> 100 µM
same,TGI,[26],> 100 µM
same,TGI,[27],> 100 µM
same,TGI,[28],> 100 µM
same,TGI,[56],> 100 µM
same,TGI,[30],> 100 µM
same,TGI,[31],> 100 µM
same,TGI,[57],> 100 µM
same,TGI,[32],> 100 µM
same,TGI,[33],> 100 µM
same,TGI,[34],> 100 µM
same,TGI,[35],> 100 µM
same,TGI,[36],> 100 µM
same,TGI,[37],> 100 µM
same,TGI,[38],> 100 µM
same,TGI,[58],> 100 µM
same,TGI,[39],> 100 µM
same,TGI,[40],> 100 µM
same,TGI,[41],> 100 µM
same,TGI,[42],> 100 µM
same,TGI,[43],> 100 µM
same,TGI,[59],> 100 µM
same,TGI,[45],> 100 µM
same,TGI,[46],> 100 µM
same,TGI,[47],> 100 µM
same,TGI,[48],> 100 µM
same,TGI,[49],> 100 µM
same,TGI,[50],> 100 µM
same,TGI,[51],> 100 µM
same,TGI,[52],> 100 µM
[N-]=[N+]=Nc1cc(=O)[nH]nc1-c1ccccc1,TGI,[1],> 100 µM
same,TGI,[2],> 100 µM
same,TGI,[3],> 100 µM
same,TGI,[4],> 100 µM
same,TGI,[5],> 100 µM
same,TGI,[7],> 100 µM
same,TGI,[8],> 100 µM
same,TGI,[9],> 100 µM
same,TGI,[10],> 100 µM
same,TGI,[53],> 100 µM
same,TGI,[11],> 100 µM
same,TGI,[54],> 100 µM
same,TGI,[55],> 100 µM
same,TGI,[12],> 100 µM
same,TGI,[13],> 100 µM
same,TGI,[14],> 100 µM
same,TGI,[15],> 100 µM
same,TGI,[16],> 100 µM
same,TGI,[17],> 100 µM
same,TGI,[18],> 100 µM
same,TGI,[19],> 100 µM
same,TGI,[20],> 100 µM
same,TGI,[21],> 100 µM
same,TGI,[22],> 100 µM
same,TGI,[23],> 100 µM
same,TGI,[24],> 100 µM
same,TGI,[25],> 100 µM
same,TGI,[26],> 100 µM
same,TGI,[27],> 100 µM
same,TGI,[28],> 100 µM
same,TGI,[56],> 100 µM
same,TGI,[29],> 100 µM
same,TGI,[30],> 100 µM
same,TGI,[31],> 100 µM
same,TGI,[57],> 100 µM
same,TGI,[33],> 100 µM
same,TGI,[34],> 100 µM
same,TGI,[35],> 100 µM
same,TGI,[36],> 100 µM
same,TGI,[37],> 100 µM
same,TGI,[38],> 100 µM
same,TGI,[58],> 100 µM
same,TGI,[40],> 100 µM
same,TGI,[42],> 100 µM
same,TGI,[43],> 100 µM
same,TGI,[44],> 100 µM
same,TGI,[45],> 100 µM
same,TGI,[46],> 100 µM
same,TGI,[47],> 100 µM
same,TGI,[48],> 100 µM
same,TGI,[49],> 100 µM
same,TGI,[50],> 100 µM
same,TGI,[51],> 100 µM
same,TGI,[52],> 100 µM
COc1ccc(-c2coc3c4c(ccc3c2=O)OCO4)cc1OC,TGI,[1],> 100 µM
same,TGI,[2],> 100 µM
same,TGI,[3],> 100 µM
same,TGI,[4],> 100 µM
same,TGI,[5],> 100 µM
same,TGI,[6],> 100 µM
same,TGI,[7],> 100 µM
same,TGI,[8],> 100 µM
same,TGI,[9],> 100 µM
same,TGI,[10],> 100 µM
same,TGI,[53],> 100 µM
same,TGI,[11],> 100 µM
same,TGI,[54],> 100 µM
same,TGI,[55],> 100 µM
same,TGI,[12],> 100 µM
same,TGI,[13],> 100 µM
same,TGI,[14],> 100 µM
same,TGI,[15],> 100 µM
same,TGI,[16],> 100 µM
same,TGI,[17],> 100 µM
same,TGI,[18],> 100 µM
same,TGI,[19],> 100 µM
same,TGI,[20],> 100 µM
same,TGI,[22],> 100 µM
same,TGI,[23],> 100 µM
same,TGI,[24],> 100 µM
same,TGI,[25],> 100 µM
same,TGI,[26],> 100 µM
same,TGI,[27],> 100 µM
same,TGI,[28],> 100 µM
same,TGI,[56],> 100 µM
same,TGI,[29],> 100 µM
same,TGI,[30],> 100 µM
same,TGI,[31],> 100 µM
same,TGI,[57],> 100 µM
same,TGI,[32],> 100 µM
same,TGI,[33],> 100 µM
same,TGI,[34],> 100 µM
same,TGI,[35],> 100 µM
same,TGI,[37],> 100 µM
same,TGI,[38],> 100 µM
same,TGI,[58],> 100 µM
same,TGI,[39],> 100 µM
same,TGI,[40],> 100 µM
same,TGI,[41],> 100 µM
same,TGI,[42],83.6 µM
same,TGI,[43],> 100 µM
same,TGI,[59],82 µM
same,TGI,[44],> 100 µM
same,TGI,[45],> 100 µM
same,TGI,[46],> 100 µM
same,TGI,[47],> 100 µM
same,TGI,[48],> 100 µM
same,TGI,[49],> 100 µM
same,TGI,[50],> 100 µM
same,TGI,[51],> 100 µM
same,TGI,[52],> 100 µM
